# Assay results published in patent publication US20230365571A1, “COMPOUNDS AND COMPOSITIONS AS Sppl2a INHIBITORS” (Novartis AG, priority 2020, published 2023).
# How the values were obtained:
# Format in all cases: cell-based
# Sppl2a CD74 = molecular target: T1, Sppl2a CD74 (Mus musculus, UniProt Q9JJF9); assay: CD74/p8 mouse whole blood assay, flow cytometry format; conditions: Balb/c mouse whole blood, 5 h, CD74 signal on gated live B cells
# T1 construct: Mouse whole blood Balb/c mice (sodium citrate) was ordered by Bioreclamation LLC; tissue Bioreclamation LLC
# T1 sequence (Q9JJF9 26-523): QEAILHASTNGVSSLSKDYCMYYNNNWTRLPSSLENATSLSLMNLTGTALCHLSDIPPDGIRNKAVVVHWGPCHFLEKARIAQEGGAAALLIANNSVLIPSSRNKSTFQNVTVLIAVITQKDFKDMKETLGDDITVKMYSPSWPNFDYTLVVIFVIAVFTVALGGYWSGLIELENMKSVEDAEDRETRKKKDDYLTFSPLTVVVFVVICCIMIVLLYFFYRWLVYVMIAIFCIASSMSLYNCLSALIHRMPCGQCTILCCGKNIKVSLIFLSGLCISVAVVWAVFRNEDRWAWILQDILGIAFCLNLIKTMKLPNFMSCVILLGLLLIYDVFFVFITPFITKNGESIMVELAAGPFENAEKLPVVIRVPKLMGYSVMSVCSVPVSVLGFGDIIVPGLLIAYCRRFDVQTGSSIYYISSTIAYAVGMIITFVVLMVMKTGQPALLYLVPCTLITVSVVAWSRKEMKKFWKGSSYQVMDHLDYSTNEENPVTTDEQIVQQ
# Procedure: CD74/p8 Mouse Whole Blood Assay: Flow Cytometry Format
# Mouse whole blood Balb/c mice (sodium citrate) was ordered by Bioreclamation LLC; USA. The blood was used the next day upon receipt (stored at 4° C.). 100 μL blood were transferred in 96 well format plate, where compounds, an 11 point dilutions down from 30 μM, to be tested were previously deposited. The plate was incubated for 5 h in the incubator at 37° C., 5% CO2 under continuous motion. After the incubation the blood was diluted with RBC Lysis Buffer (Amined; Cat. Nr 3-13F00-H or BD; Cat. Nr 555899). The solution was mixed by pipetting and incubated 10 min in the 37° C. incubator. The white blood cells were sedimented for 3 min at 2000 rpm. After removing the supernatant the cell pellet was resuspended and washed twice in RCB Buffer and kept≈ 5 min at room temperature, followed by a centrifugation for 2 min at 2000 rpm. The cell pellet was then resuspend in D-PBS and centrifuged twice. Finally, the cells were taken up in of D-PBS/0.5% inactivated fetal bovine serum/2 mM EDTA. The cell suspension was treated with Live/Dead fixable stain (Life Technologies, >470 nm version), B cells were identified by surface staining with an anti-B220 antibody coupled to APC fluorofor. After staining, the cells were extensively washed with PBS. The cells were permeabilized and fixed in FACS lysing buffer; (BD; #349202, dil 1:10 in water) and labelled with an anti CD74, FITC labelled antibody, washed once more with diluted FACS lysing buffer and spin down. The cell pellet was washed with D-PBS/0.5% inactivated fetal bovine serum/2 mM EDTA and PBS prior to the analysis in a flow cytometer. The compound concentrations were plotted against the intensity (medium fluorescence intensity) of the CD74 signal on the gated life B cell and IC50 were determined by fitting data for a 11 concentrations dose response.
# human SPPL2a [1] = molecular target: T2, human SPPL2a (Homo sapiens, UniProt Q8TCT8); assay: Sppl2a TL (translocation) imaging assay in U-2 OS cells; parameters: expressed in transfected cells; conditions: U-2 OS cells expressing human SPPL2a and EGFP-TNFα(aa1-76) NTF substrate; 24 h
# T2 sequence (Q8TCT8 26-520): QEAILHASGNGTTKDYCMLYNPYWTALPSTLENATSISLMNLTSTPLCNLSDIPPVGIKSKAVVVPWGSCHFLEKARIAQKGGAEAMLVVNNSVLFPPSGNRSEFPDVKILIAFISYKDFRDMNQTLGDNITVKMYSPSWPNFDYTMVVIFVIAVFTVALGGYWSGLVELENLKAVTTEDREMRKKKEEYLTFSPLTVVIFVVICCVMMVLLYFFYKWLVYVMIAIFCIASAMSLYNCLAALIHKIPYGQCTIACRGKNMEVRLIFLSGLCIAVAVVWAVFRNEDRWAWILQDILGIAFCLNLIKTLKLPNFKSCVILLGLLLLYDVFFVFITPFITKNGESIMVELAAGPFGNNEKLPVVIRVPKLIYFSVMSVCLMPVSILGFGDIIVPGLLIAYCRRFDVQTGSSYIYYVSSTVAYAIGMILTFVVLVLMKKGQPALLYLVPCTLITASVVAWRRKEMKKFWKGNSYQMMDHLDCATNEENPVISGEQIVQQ
# In short: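 U-2 OS cells stably expressing human SPPL2a plus doxycycline-induced EGFP-TNFα(aa1-76) NTF, treated 24 h at 37 °C with inhibitor (100 μM–1 nM, 11 points, 0.9% DMSO, 5 μg/mL doxycycline). Imaging of nuclear-minus-cytoplasmic EGFP intensity; % inhibition versus 0.5 μM LY-411,575 and DMSO, IC50 by nonlinear regression; CC50 from cell count.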
# human SPPL2a [2] = molecular target: T2, human SPPL2a; assay: Sppl2a RGA (reporter gene assay) in HEK293 cells; parameters: expressed in transfected cells; host or cells: HEK293 (transient); conditions: NT-TNF-VP16-Gal4 substrate, Gal4-luciferase reporter, 24 h
# In short: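 Cleavage of a membrane-bound TNF N-terminal–VP16-Gal4 substrate drives Gal4-luciferase expression in transiently transfected HEK293 cells also expressing human SPPL2a. Compounds incubated 24 h, 37 °C, 5% CO2; luminescence read, normalized and plotted against concentration for IC50.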
SMILES,IC50 (Sppl2a CD74) [nM],IC50 (human SPPL2a [1]) [nM],IC50 (human SPPL2a [2]) [nM]
"Cc1nc(NC(=O)C(C)C)sc1C(=O)NC[C@H](C(=O)N[C@@H]1C(=O)N2CCCN2Cc2ccccc21)C(F)(F)F [Example 3, 2-Isobutyramido-4-methyl-N-((R)-3,3,3-trifluoro-2-(((S)-11-oxo-2,3,10,11-tetrahydro-1H,5H-benzo[d]pyrazolo [1,2-a][1,2]diazepin-10-yl)carbamoyl)pro-pyl)thiazole-5-carboxamide]",100,0.5,3
"Cc1nc(NC(=O)C(C)C)sc1C(=O)NC[C@@H](C)C(=O)N[C@@H]1C(=O)N2CCCN2Cc2ccccc21 [Example 4, 2-Isobutyramido-4-methyl-N-((R)-2-methyl-3-oxo-3-(((S)-11-oxo-2,3,10,11-tetrahydro-1H,5H-benzo[d]pyrazolo [1,2-a][1,2]diazepin-10-yl)amino)propyl) thiazole-5-carboxamide]",100,1,12
"Cc1cc(F)cc2nc(C[C@@H](C)C(=O)N[C@@H]3C(=O)N4CCCN4Cc4c(F)cccc43)[nH]c12 [Example 118, (R)-N-((S)-6-fluoro-11-oxo-2,3,10,11-tetrahydro-1 H,5H-benzo[d]pyrazolo[1,2-a][1,2]diazepin-10-yl)-3-(5-fluoro-7-methyl-1H-benzo[d]imidazol-2-yl)-2-methylpropanamide]",–,116,19
"CCC[C@H](Cc1nc2cc(F)cc(C)c2[nH]1)C(=O)N[C@@H]1C(=O)N2CCCN2Cc2ccccc21 [Example 119, (R)-2-((5-fluoro-7-methyl-1H-benzo[d]imidazol-2-yl)methyl)-N-((S)-11-oxo-2,3,10,11-tetrahydro-1H,5H-benzo[d]pyrazolo[1,2-a][1,2]diazepin-10-yl)pentanamide]",–,185,19

# Results, then the compound that gave them:
IC50 (Sppl2a CD74) [nM],IC50 (human SPPL2a [1]) [nM],IC50 (human SPPL2a [2]) [nM],SMILES
358,24,29,"CNC(=O)c1nc(C)c(C(=O)NC[C@@H](C)C(=O)N[C@@H]2C(=O)N3CCCN3Cc3ccccc32)s1 [Example 1, N^2,4-dimethyl-N^5—((R)-2-methyl-3-oxo-3-(((S)-11-oxo-2,3,10,11-tetrahydro-1H,5H-benzo[d]pyrazolo[1,2-a][1,2]diazepin-10-yl)amino)propyl)thiazole-2,5-dicarboxamide]"
225,2,2,"Cc1nc(C(=O)NCC(F)F)sc1C(=O)NC[C@H](C(=O)N[C@@H]1C(=O)N2CCCN2Cc2ccccc21)C(F)(F)F [Example 5, N^2-(2,2-Difluoroethyl)-4-methyl-N^5-((R)-3,3,3-trifluoro-2-(((S)-11-oxo-2,3,10,11-tetrahydro-1H,5H-benzo[d]pyrazolo [1,2-a][1,2]diazepin-10-yl)carbamoyl)pro-pyl)thiazole-2,5-dicarboxamide]"
1560,2,2,"Cc1nc(C(=O)NCC(F)F)sc1C(=O)NC[C@H](C(=O)N[C@@H]1C(=O)N2CCCN2Cc2ccccc21)C1CC1 [Example 6, N^5-((R)-2-Cyclopropyl-3-oxo-3-(((S)-11-oxo-2,3,10,11-tetrahydro-1H,5H-benzo[d]pyrazolo [1,2-a][1,2]diazepin-10-yl)amino)propyl)-N^2-(2,2-difluoroethyl)-4-methylthiazole-2,5-dicarboxamide]"
120,3,2,"CCNC(=O)c1nc(C)c(C(=O)NC[C@H](C(=O)N[C@@H]2C(=O)N3CCCN3Cc3ccccc32)C(F)(F)F)s1 [Example 7, N^2-Ethyl-4-methyl-N^5-((R)-3,3,3-trifluoro-2-(((S)-11-oxo-2,3,10,11-tetrahydro-1H,5H-benzo[d]pyrazolo [1,2-a][1,2]diazepin-10-yl)carbamoyl)pro-pyl)thiazole-2,5-dicarboxamide]"
